Test results published in ChEMBL document CHEMBL4145637, “Libertellenones O-S and Eutypellenones A and B, Pimarane Diterpene Derivatives from the Arctic Fungus Eutypella sp. D-1” (J Nat Prod, 2018).
Activity calls are given as the source filed them. The calls are words filed in the database; no cut-off is given here.

Legend:
HeLa = test: Cytotoxicity against human HeLa cells after 72 hrs by CCK8 assay; type: functional, cell-based
MCF7 = test: Cytotoxicity against human MCF7 cells after 72 hrs by CCK8 assay; type: functional, cell-based; conditions: MCF7, 72 h
HCT-116 = test: Cytotoxicity against human HCT116 cells after 72 hrs by CCK8 assay; type: functional, cell-based; conditions: HCT-116, 72 h
PANC-1 = test: Cytotoxicity against human PANC1 cells after 72 hrs by CCK8 assay; type: functional, cell-based; conditions: PANC-1, 72 h
SW1990 = test: Cytotoxicity against human SW1990 cells after 72 hrs by CCK8 assay; type: functional, cell-based; conditions: SW1990, 72 h
HEK293 = test: Inhibition of TNFalpha-stimulated NFkappaB (unknown origin) expressed in HEK293 cells pretreated for 2 hrs followed by TNFalpha stimulation and measured after 6 hrs by luciferase reporter gene assay; type: cell-based; conditions: Homo sapiens
RAW264.7 = test: Inhibition of LPS-induced nitric oxide production in […] RAW264.7 cells at 2.5 to 20 uM pretreated for 2 hrs followed by LPS-stimulation and measured after 20 hrs by Griess assay; type: functional, cell-based

Structure (SMILES) | IC50 (HeLa) [µM] | IC50 (MCF7) [µM] | IC50 (HCT-116) [µM] | IC50 (PANC-1) [µM] | IC50 (SW1990) [µM] | inhibition (HEK293) | inhibition (RAW264.7)
C=C[C@]1(C)C=C2C(=O)C(O)=C3[C@](C)(COC(=O)C(C)C)[C@H](OC(C)=O)C[C@H]4C[C@@]34[C@@]2(O)CC1 | 0.7 | 1.4 | 1 | 1.8 | 0.3 | – | –
C=C[C@]1(C)C=C2C(=O)[C@H](O)[C@H]3[C@](C)(COC(=O)C(C)C)[C@H](OC(C)=O)C[C@H]4C[C@]43[C@@]2(O)CC1 | > 50 | > 50 | > 50 | 26.6 | > 50 | – | –
C=C[C@]1(C)C=C2C(=O)C(=O)[C@H]3[C@](C)(COC(=O)C(C)C)[C@H](OC(C)=O)C[C@H]4C[C@]43[C@@]2(O)CC1 | > 50 | > 50 | 29.4 | > 50 | > 50 | – | –
C=C[C@]1(C)C=C2C(=O)C(O)=C3[C@@]4(OC)[C@H](C[C@H](OC(C)=O)[C@]3(C)COC(=O)C(C)C)C[C@]24CC1 | 6 | 8.3 | 8.4 | 7 | 8 | Dose-dependent effect | Active
C=C[C@@]1(C)CCC2=C(C(=O)O[C@@H]3CC[C@@]4(C)COC(=O)[C@@H]4[C@]23C)[C@H]1O | > 50 | > 50 | > 50 | > 50 | > 50 | – | –
C=C[C@]1(C)C=C2C(=O)C(O)=C3[C@](C)(COC(C)=O)[C@H](OC(C)=O)C[C@H]4C[C@@]34[C@@]2(O)CC1 | 3.1 | 4.1 | 2.2 | 6 | 2.4 | – | –
C=C[C@]1(C)C=C2C(=O)C(O)=C3[C@@]4(O)[C@H](C[C@H](OC(C)=O)[C@]3(C)COC(=O)C(C)C)C[C@]24CC1 | 13.1 | 10.7 | 12.6 | 12.1 | 10.3 | Dose-dependent effect | Active
C=C[C@]1(C)C=C2C(=O)C(O)=C3[C@](C)(COC(=O)C(C)C)[C@H](O)C[C@H]4C[C@@]34[C@@]2(O)CC1 | 1.2 | 1.1 | 1.3 | 2.1 | 0.8 | – | –
C=C[C@]1(C)C=C2C(=O)C(O)=C3[C@](C)(COC(=O)CC)[C@H](OC(C)=O)C[C@H]4C[C@@]34[C@@]2(O)CC1 | 2.6 | 2.9 | 1.9 | 3.6 | 1 | – | –
